US12268683B2, “Compounds and methods for synergistic activation of M channels” (THE REGENTS OF THE UNIVERSITY OF CALIFORNIA, priority 2018, dated 2025)

Tests used:
[1] = system: water-injected control oocytes; assay: TEVC of water-injected control oocytes (endogenous current, EM); type: cell-based, Xenopus laevis
Protocol: TEVC recording was performed at room temperature with an OC-725C amplifier (Warner Instruments, Hamden, Conn.) and pClamp10.2 software (Molecular Devices, Sunnyvale, Calif.) 3-5 days after cRNA injection as described in the section above. Oocytes were placed in a small-volume oocyte bath (Warner) and viewed with a dissection microscope. Chemicals were sourced from Sigma. Bath solution was (in mM): 96 NaCl, 4 KCl, 1 MgCl2, 1 CaCl2. 10 HEPES (pH 7.6). […] MTX (DMSO), sorbic acid (ethanol), and glutaconic acid (molecular grade H2O) were stored at −20° C. as 1 M stocks. Oleamide was stored as a 1 mM stock in ethanol at 4° C. […] Currents were recorded in response to pulses between −80 and +40 mV at 20 mV intervals, or a single pulse to +40 mV, from a holding potential of −80 mV, to yield current-voltage relationships, current magnitude, and for quantifying activation rate. […]
TEVC recording was performed at room temperature using a OC-725C amplifier (Warner Instruments, Hamden, Conn.) and pClamp8 software (Molecular Devices, Sunnyvale, Calif.) 2-5 days after cRNA injection as described in the section above. […] Currents were recorded in response to pulses between −80 mV and +40 mV at 20 mV intervals, or a single pulse to +40 mV, from a holding potential of −80 mV, to yield current-voltage relationships, current magnitude, and for quantifying activation rate. […]

[2] = molecular target: KCNQ1 (Homo sapiens, UniProt P51787); assay: TEVC of homomeric KCNQ1 expressed in Xenopus oocytes; type: cell-based
Source text: cRNA transcripts encoding human KCNA1, KCNQ1, KCNQ2, KCNQ3, KCNQ4, or KCNQ5 were generated by in vitro transcription using the T7 polymerase message machine kit (Thermo Fisher Scientific), after vector linearization, from cDNA sub-cloned into plasmids incorporating X. laevis β-globin 5′ and 3′ UTRs flanking the coding region to enhance translation and cRNA stability. cRNA was quantified by spectrophotometry. Mutant cDNAs were generated by site-directed mutagenesis using a QuikChange kit according to manufacturer's protocol (Stratagene, San Diego, Calif.) and corresponding cRNAs prepared as above. Defolliculated stage V and VI X. laevis oocytes (Ecocyte Bioscience, Austin, Tex.) were injected with Kv channel a subunit cRNAs (10 ng total per oocyte). Oocytes were incubated at 16° C. in Barth's saline solution (Ecocyte) containing penicillin and streptomycin, with daily washing, for 3-5 days prior to two-electrode voltage-clamp (TEVC) recording.
Oocytes were placed in a small-volume oocyte bath (Warner) and viewed with a dissection microscope. Chemicals were sourced from Sigma. Bath solution was (in mM): 96 NaCl, 4 KCl, 1 MgCl2, 1 CaCl2. 10 HEPES (pH 7.6). […] MTX (DMSO), sorbic acid (ethanol), and glutaconic acid (molecular grade H2O) were stored at −20° C. as 1 M stocks. Oleamide was stored as a 1 mM stock in ethanol at 4° C. Palmitic acid was conjugated with bovine serum albumin as a 1 mM stock and stored at −20° C. All compounds were diluted to working concentrations each experimental day. All compounds were introduced to the recording bath via gravity perfusion at a constant flow of 1 ml/min for 3 min prior to recording. Pipettes were of 1-2 MΩ resistance when filled with 3 M KCl. Currents were recorded in response to pulses between −80 and +40 mV at 20 mV intervals, or a single pulse to +40 mV, from a holding potential of −80 mV, to yield current-voltage relationships, current magnitude, and for quantifying activation rate. […]

SMILES | effect on endogenous current or EM of water-injected control oocytes [1] | effect on KCNQ1 (in words) [2]
CC(=O)c1c(O)c(C)c(O)c(Cc2c(O)c3c(c(C(=O)/C=C/c4ccccc4)c2O)OC(C)(C)C=C3)c1O [MTX, mallotoxin] | no effect | –
CCCCCCCCC/C=C/C=O [(E)-2-dodecenal] | – | sensitive
NCC1(CC(=O)O)CCCCC1 [gabapentin, reference compound] | no effect | –
CS(=O)(=O)N(CC(=O)O)c1cccc(F)c1 [3FMSG] | – | negligible effects
